This experiment has as its system GKI (PPTG_18934). Particulars: pH 8.0, phosphate buffer.

Read-outs that look alike come from different tables or passages of the source.

Consider `Nc1ncnc2c1ncn2[C@@H]1O[C@H](COP(=O)(O)OP(=O)(O)OP(=O)(O)O)[C@@H](O)[C@H]1O` [ATP], for which the Km (read-out: Km / ATP, co-substrate glucose) came out at 700 ± 50 µM. In the case of `OC[C@H]1OC(O)[C@H](O)[C@@H](O)[C@@H]1O` (some centres unmarked) [Glucose], for the setting “read-out: Km / Glucose, substrate inhibition at glucose >= 1 mM”, the Km worked out at 40.5 ± 5 µM.

The record behind these values is PMC8879444, “Neofunctionalization of Glycolytic Enzymes: An Evolutionary Route to Plant Parasitism in the Oomycete Phytophthora nicotianae” (Microorganisms, 2022).
